Holding throughout (details): GABA Hill fit
In experiment [1] the target is T1, α5(P166T)β2γ2 GABAA receptor (Homo sapiens, UniProt P18507+P31644+P47870, P197T).
T1 construct: expressed in transfected cells; host or cells: HEK293T
Put plainly: GABA concentration-response assay, whole-cell patch clamp, HEK293T. The experiment is classed as cell-based. An excerpt: (§1) Human (Homo sapiens) GABAA subunits (α1‐6, β2, γ2s) were subcloned into pcDNA3.1+ vectors with a cytomegalovirus (CMV) promoter. The hβ2 and hα3 sequences were humanized rat (Rattus norvegicus) cDNA with amino acid substitutions made to match the human protein sequence. The α1‐3, α5, β2, and γ2s subunits were a generous gift from Neil L. Harrison (Columbia University Medical Center, NY). The α4 subunit was obtained from GenScript (Piscataway, NJ), and the α6 subunit was a generous gift from Robert L. McDonald (Vanderbilt University, TN). All point mutations (listed in Figure 1C) were introduced using the QuikChange Lightening site‐directed mutagenesis kit (Agilent Technologies, Santa Clara, CA) according to the manufacturer's instructions and were confirmed by sequencing (Eurofins MWG Operon, Louisville, KY).
(§2) Human embryonic kidney cells containing the SV40 T‐antigen (HEK293T) were acquired from American Type Culture Collection (ATCC®, Manassas, VA), catalogue number, CRL3216. HEK293T cells were maintained at 37°C and 5% CO2 in Eagle Minimum Essential Medium (MEM) supplemented with 5% fetal bovine serum (Atlanta Biologicals Inc., Flowery Branch, GA), 40 μM L‐glutamine, 100 U/mL penicillin and 0.1 mM streptomycin. Cells were passaged regularly when they reached 70% confluency using trypsin. Cells were not passaged more than 22 times. New cells were revived from frozen stocks at passage 2‐4. Cells used for in vitro electrophysiology experiments were grown on poly‐D‐lysine‐coated glass coverslips (No.2, VWR, Radnor, PA) and transfected with X‐tremeGENE (Roche Diagnostics, Indianapolis, IN) with the desired receptor subunit cDNAs at a 1:1:1 ratio to express αxβ2γ2s receptors (2 μg total cDNA) and with 0.5 μg green fluorescent protein (GFP) as an expression marker. The γ2s incorporation into receptors was tested with zinc inhibition assays regularly.24 Patch clamp experiments were performed on cells at 24‐72 hours post‐transfection. All experiments were performed at 22°C. Experiments consisted of at least five cells recorded per day from at least two transfections across 3‐4 days to control for cell health and transfection efficiency. At least three cells expressing wild‐type receptors were recorded on days that mutant receptors were tested to provide a time‐matched expression control. All reagents were purchased from Sigma‐Aldrich (St. Louis, MO) unless otherwise stated.
(§3) Extracellular solution contained 161 mM NaCl, 3 mM KCl, 1 mM MgCl2, 1.5 mM CaCl2, 10 mM HEPES, and 6 mM D‐glucose, adjusted to pH 7.4 with NaOH (320‐330 mOsm). […] The perfusion system was controlled by protocols written in pClamp 9 (Molecular Devices, LLC., Sunnyvale, CA). Whole‐cell currents were recorded at ‐60 mV, filtered at 100 Hz and sampled at 200 Hz with a MultiClamp 700B amplifier (Molecular Devices, LLC) and DigiData 1322A (Molecular Devices, LLC) digitizer. […] Cells were recorded with the midazolam protocol no more than two times to avoid desensitization and incomplete washout or irreversible modulation.
(§4) Recordings were analyzed using MATLAB (Math Works, Inc., Natick, MA). […] The maximum peak current, EC50 and Hill coefficient were estimated for assays from each cell. When Hill parameters are estimated from whole‐cell recordings, the changes in the parameters across receptor conditions can be ascribed to the following changes in receptor physiology. Changes in maximum current can be due to changes in the single‐channel conductance or the rate of desensitization. Changes in cell surface receptor expression can cause minor changes in maximum current, but are unlikely to occur in the time course of our experimental protocol. […] More often minor changes in the Hill coefficient are attributed to the altered homogeneity in the receptor population expressed by the HEK293T cell. For example, a shallower Hill coefficient could be caused by a shift in the population of receptors from mostly αβγ receptors to a combination of both αβ and αβγ receptors.
For orientation: The patch-clamp technique gives a direct electrical read-out from membranes.

The target of experiment [2] is T2, α5(S209I)β2γ2 GABAA receptor (Homo sapiens, UniProt P18507+P31644+P47870, S240I).
T2 construct: expressed in transfected cells; host or cells: HEK293T
T2 sequence (P31644 32-462 S240I): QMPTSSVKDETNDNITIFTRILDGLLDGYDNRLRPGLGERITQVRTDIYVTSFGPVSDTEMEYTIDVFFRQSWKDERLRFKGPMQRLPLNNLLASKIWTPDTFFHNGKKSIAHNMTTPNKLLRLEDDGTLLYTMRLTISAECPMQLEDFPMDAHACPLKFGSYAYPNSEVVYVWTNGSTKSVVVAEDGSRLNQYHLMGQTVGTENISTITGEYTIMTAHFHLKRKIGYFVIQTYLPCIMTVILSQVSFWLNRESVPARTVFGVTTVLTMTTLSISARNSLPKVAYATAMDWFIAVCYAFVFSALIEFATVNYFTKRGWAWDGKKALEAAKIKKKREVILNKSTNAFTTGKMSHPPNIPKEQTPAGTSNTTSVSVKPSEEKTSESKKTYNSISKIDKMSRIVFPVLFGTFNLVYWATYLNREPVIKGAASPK
T2 sequence (P47870 26-474 isoform P47870-1 limits assumed, stated change not applied): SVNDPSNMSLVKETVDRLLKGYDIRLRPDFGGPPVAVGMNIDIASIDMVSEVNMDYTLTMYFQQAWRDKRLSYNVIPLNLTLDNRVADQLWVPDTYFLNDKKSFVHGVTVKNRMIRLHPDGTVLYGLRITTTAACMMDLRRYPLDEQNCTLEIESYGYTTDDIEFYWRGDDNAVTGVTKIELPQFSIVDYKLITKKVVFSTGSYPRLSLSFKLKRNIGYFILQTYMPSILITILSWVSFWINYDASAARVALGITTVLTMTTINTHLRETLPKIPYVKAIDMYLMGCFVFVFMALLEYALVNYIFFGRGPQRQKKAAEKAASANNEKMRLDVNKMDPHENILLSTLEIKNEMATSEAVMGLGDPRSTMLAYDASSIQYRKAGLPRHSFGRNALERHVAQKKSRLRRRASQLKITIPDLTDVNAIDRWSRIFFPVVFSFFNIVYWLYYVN
T2 sequence (P18507 40-467 isoform P18507-1 limits assumed, stated change not applied): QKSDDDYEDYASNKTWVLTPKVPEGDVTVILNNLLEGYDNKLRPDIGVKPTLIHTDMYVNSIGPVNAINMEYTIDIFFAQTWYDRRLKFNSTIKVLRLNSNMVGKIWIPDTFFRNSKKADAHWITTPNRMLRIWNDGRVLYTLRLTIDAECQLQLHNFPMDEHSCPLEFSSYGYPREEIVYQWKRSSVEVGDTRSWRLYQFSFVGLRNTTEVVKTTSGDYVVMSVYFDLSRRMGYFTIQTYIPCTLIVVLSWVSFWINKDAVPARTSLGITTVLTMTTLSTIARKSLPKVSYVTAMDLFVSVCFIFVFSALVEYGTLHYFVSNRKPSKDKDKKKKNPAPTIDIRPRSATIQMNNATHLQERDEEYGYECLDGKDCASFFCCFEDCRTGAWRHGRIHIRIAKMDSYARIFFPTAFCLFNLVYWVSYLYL
Described as above. The experiment is classed as cell-based.
Source text: as §1, §2, §3, §4

The target in experiment [3] is α6(P161T)β2γ2 GABAA receptor (Homo sapiens, UniProt P18507+P47870+Q16445, P180T). An excerpt:
(§5) Human (Homo sapiens) GABAA subunits (α1‐6, β2, γ2s) were subcloned into pcDNA3.1+ vectors with a cytomegalovirus (CMV) promoter. The hβ2 and hα3 sequences were humanized rat (Rattus norvegicus) cDNA with amino acid substitutions made to match the human protein sequence. The α1‐3, α5, β2, and γ2s subunits were a generous gift from Neil L. Harrison (Columbia University Medical Center, NY). The α4 subunit was obtained from GenScript (Piscataway, NJ), and the α6 subunit was a generous gift from Robert L. McDonald (Vanderbilt University, TN). […]
(§6) Human embryonic kidney cells containing the SV40 T‐antigen (HEK293T) were acquired from American Type Culture Collection (ATCC®, Manassas, VA), catalogue number, CRL3216. […] Experiments consisted of at least five cells recorded per day from at least two transfections across 3‐4 days to control for cell health and transfection efficiency. At least three cells expressing wild‐type receptors were recorded on days that mutant receptors were tested to provide a time‐matched expression control. […]
(§7) Extracellular solution contained 161 mM NaCl, 3 mM KCl, 1 mM MgCl2, 1.5 mM CaCl2, 10 mM HEPES, and 6 mM D‐glucose, adjusted to pH 7.4 with NaOH (320‐330 mOsm). […] Whole‐cell currents were recorded at ‐60 mV, filtered at 100 Hz and sampled at 200 Hz with a MultiClamp 700B amplifier (Molecular Devices, LLC) and DigiData 1322A (Molecular Devices, LLC) digitizer. […]

Experiment [4] deals with α6(R100H)β2γ2 GABAA receptor (Homo sapiens, UniProt P18507+P47870+Q16445, R119H).
Chain of α6(R100H)β2γ2 GABAA receptor (Q16445 20-453 R119H): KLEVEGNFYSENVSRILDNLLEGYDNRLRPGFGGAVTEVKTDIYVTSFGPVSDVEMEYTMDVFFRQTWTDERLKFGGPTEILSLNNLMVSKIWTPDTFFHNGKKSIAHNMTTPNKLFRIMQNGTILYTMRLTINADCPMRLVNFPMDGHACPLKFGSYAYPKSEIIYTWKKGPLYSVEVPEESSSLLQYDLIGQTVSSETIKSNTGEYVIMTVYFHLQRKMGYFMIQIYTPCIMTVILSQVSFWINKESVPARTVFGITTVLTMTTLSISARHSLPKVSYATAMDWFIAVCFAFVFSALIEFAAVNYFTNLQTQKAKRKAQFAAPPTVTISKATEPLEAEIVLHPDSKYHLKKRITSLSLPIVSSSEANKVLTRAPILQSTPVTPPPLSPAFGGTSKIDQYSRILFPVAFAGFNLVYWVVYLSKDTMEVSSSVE
Chain of α6(R100H)β2γ2 GABAA receptor (P47870 26-474 isoform P47870-1 limits assumed, stated change not applied): as the sequence (P47870 26-474 isoform P47870-1 limits assumed, stated change not applied) above
Chain of α6(R100H)β2γ2 GABAA receptor (P18507 40-467 isoform P18507-1 limits assumed, stated change not applied): as the sequence (P18507 40-467 isoform P18507-1 limits assumed, stated change not applied) above
Source text: as §5, §6, §7

T1 sequence (P31644 32-462 P197T): as the sequence (P31644 32-462 S240I) above, with P166T, I209S counted along it
T1 sequence (P47870 26-474 isoform P47870-1 limits assumed, stated change not applied): as the sequence (P47870 26-474 isoform P47870-1 limits assumed, stated change not applied) above
T1 sequence (P18507 40-467 isoform P18507-1 limits assumed, stated change not applied): as the sequence (P18507 40-467 isoform P18507-1 limits assumed, stated change not applied) above
Chain of α6(P161T)β2γ2 GABAA receptor (Q16445 20-453 P180T): as the sequence (Q16445 20-453 R119H) above, with H100R, P161T counted along it
Chain of α6(P161T)β2γ2 GABAA receptor (P47870 26-474 isoform P47870-1 limits assumed, stated change not applied): as the sequence (P47870 26-474 isoform P47870-1 limits assumed, stated change not applied) above
Chain of α6(P161T)β2γ2 GABAA receptor (P18507 40-467 isoform P18507-1 limits assumed, stated change not applied): as the sequence (P18507 40-467 isoform P18507-1 limits assumed, stated change not applied) above

Consider `NCCCC(=O)O` [GABA, γ‐aminobutyric acid], for which the Hill coefficient (commonly a measure of the steepness of the concentration-response curve) is 1.420 ± 0.064 in experiment [1] and 1.434 ± 0.059 in experiment [2]. For the same molecule, the “Max Current (pA)” value is listed as -4543 ± 553.0 pA in experiment [1], -6073 ± 742.0 pA in experiment [2], -3540 ± 290.2 pA in experiment [3] and -2902 ± 349.5 pA in experiment [4].

Values taken from publication PMC6234229, “The role of loops B and C in determining the potentiation of GABAA receptors by midazolam” (Pharmacology Research & Perspectives, 2018).
